Consider four compounds from US11820758B2, “NEK6 kinase inhibitors useful for the treatment of solid tumors” (CONSIGLIO NAZIONALE DELLE RICERCHE, priority 2018, dated 2023).

For test [1], the system named is PEO-1. Put plainly: Cytotoxic effect of compound 8 in combination with Cisplatin in PEO-1. It counts as cell-based, human. The following applies: PEO-1, 72 h; IC50 of cisplatin alone or with C8 fixed at 44 μM; read-out: IC50 (μM ± SEM). As to the method: Cisplatin (Sigma-Aldrich, St. […] The luminescence signal was read at the instrument […]). […] Parallelly, the single curves of Cisplatin and compound 8 were performed. […] Pharmacol Rev. 2006; 58:621-81).

In test [2] the test system is MDA-MB-231. Nature of the test: Cytotoxicity (ATPlite, 72 h) on MDA-MB-231. The following applies: MDA-MB-231 (breast), read-out: IC50 values (μM ± SEM). The format is cell-based, human. As to the method:
(§1) The compounds C8 and C21 identified in the previous assay of enzymatic activity were tested on 8 tumour cell lines representative of different solid tumours: MDA-MB231 and MCF7 (mammary tumour; ATCC, LGC Standards S.r.L, Sesto San Giovanni, MI), PEO1 and COV318 (ovarian tumour; ECACC, Saltssbury, UK), HCT-15 and SW948 (colon tumour; ECAC and ATCC, Sesto San Giovanni, MI), NCI-H1975 and NCI-H1299, (lung tumour; ATCC). Through experiments of cytotoxicity the capability of such compounds of inhibiting the cell growth was evaluated.
(§2) The cell lines were kept in culture in 75-cm^2 average flasks in atmosphere humidified with 5% CO2/95% air in the following media: DMEM supplemented with 10% FBS, 1% Kanamycin, 1% amino acids not essential for MDA-MB231 and MCF7; RPMI 10% FBS, 1% Kanamycin, 1% amino acids not essential for COV318, NCI-H1975 and NCI-H1299, with addition of 2 mM Sodium Pyruvate for PEO-1; RPMI 20% FBS, 1% Kanamycin, 1% amino acids not essential for HCT-15; LEIBOVITZ'S L15, 10% FBS, 1% Kanamycin, 1% amino acids not essential for SW948. All reagents were purchased at Sigma-Aldrich (St. Louis, MO) if not otherwise specified.
24 h after plating the compounds were added in quadruplicate at the following concentrations: C8 (6 μM; 12 μM; 24 μM; 48 μM; 96 μM; 192 μM) and C21 (8 μM; 16 μM; 32 μM; 64 μM; 128 μM; 256 μM). […] Similarly, the compound 21 inhibits the growth by 50% at 75±12 μM.
Background: Cellular ATP, detected with luciferase, serves as a proxy for viable cell number.

For test [3], the target named is T1, NEK6 (Homo sapiens, UniProt Q9HC98). Put plainly: LANCE-Ultra NEK6 kinase assay. It counts as biochemical. The note with it: for IC50: LANCE-Ultra, 4 nM NEK6, 50 nM ULight-p70 S6K peptide, 100 μM ATP, 90 min, average of 4 experiments ± SEM, read-out: IC50 of NEK6 activity inhibition; for NEK6 activity inhibition in screening: single concentration 30 μM, FIG. 1. On the procedure: FIG. 1. NEK6 activity inhibition. Bar graph representing the results of the screening of several compounds at 30 μM by using LANCE-Ultra NEK6 kinase assay (PerkinElmer) incubated with 4 nM NEK6, 50 nM ULight-p70 S6K Peptide and 100 μM ATP for 90 minutes at room temperature. As control inhibitor quercetin was used.
FIG. 2. FIG. 2 represents the molecules identified with inhibitory activity on NEK6 by using LANCE-Ultra NEK6 kinase assay (PerkinElmer). The curves represent the % of NEK6 activity depending upon the inhibitor concentration. A) The compound 8 (ZINC05007751) is capable of inhibiting the NEK6 activity with 1050=3.4±1.2 μM; B) the compound 21 (ZINC04384801) inhibits NEK6 at 1050=2.6±0.05 μM. The IC50 value derives from the average of IC50s of 4 independent experiments±SEM. Each point of the curve represents the average of a triplicate±SEM of a representative experiment.
The compounds in powder (Molport, Riga, LV-1011, Latvia) were dissolved in DMSO 100% at a stock concentration of 10 mM. The fresh compounds were tested initially at a single concentration (30 μM) with LANCE NEK6 Ultra Kinase Assays (Perkin Elmer, Monza (MB)), whereas the remaining solution was aliquoted, kept at −20° C. and used for the enzymatic inhibition curves of the selected compounds. The reaction was performed in 384-OptiPlate™-384 (PerkinElmer #6007290) white plates, by using as reagents the Europium-labeled anti-phospho-p70 S6K (Thr389) Antibody (PerkinElmer #TRF0214), ULight-p70 S6K (Thr389) (PerkinElmer #TRF0126), NEK6 (Carna, Chuo-ku, Kobe, Japan, #05-130), LANCE® Detection Buffer, 10×(PerkinElmer #CR97-100), ATP (Sigma-Aldrich, Saint Louis, U.S.A, #A2383). NEK6, ATP and the compounds were diluted in Kinase Buffer (50 mM HEPES pH 7.5, 1 mM EGTA, 10 mM MgCl2, 2 mM DTT and 0.01% Tween-20), and where necessary DMSO was added to obtain a concentration of 0.3% in the final reaction volume. For the initial screening the compounds were tested at the final concentration of 30 μM, final DMSO 0.3% in kinase buffer and incubated with 4 nM NEK6, 50 nM ULight-p70 S6K Peptide and 100 μM ATP, in a reaction volume of 10 μL for 90 minutes at room temperature. As control inhibitor quercetin (Molport #001-740-557) was used. For the enzymatic inhibition curves, the selected compounds C8 (Molport #002-933-483), C21 (Molport #000-911-820) were diluted serially (dilutions 1:2) from 30 μM to 0.9375 μM (final concentrations: 30 μM; 15 μM; 7.5 μM; 3.75; 1.875 μM; 0.9375 μM in 0.3% DMSO) and incubated under the same conditions. […] After the film removal, the signal was read at the Enspire (PerkinElmer) plate reader (excitation 320 nm and emission at 665 nm). The % of enzymatic activity of NEK6 was calculated with respect to the control (100% activity), after subtracting the white of the experiment.

Test [4] deals with SW948. Nature of the test: Cytotoxicity (ATPlite, 72 h) on SW948. It counts as cell-based. The following applies: Homo sapiens, SW948 (colon), read-out: IC50 values (μM ± SEM). On the procedure: as §1, §2
(§3) 24 h after plating the compounds were added in quadruplicate at the following concentrations: C8 (6 μM; 12 μM; 24 μM; 48 μM; 96 μM; 192 μM) and C21 (8 μM; 16 μM; 32 μM; 64 μM; 128 μM; 256 μM).

For test [5], the system named is NCI-H1975. Put plainly: Cytotoxicity (ATPlite, 72 h) on NCI-H1975. The format is cell-based. The note with it: Homo sapiens, NCI-H1975 (lung), read-out: IC50 values (μM ± SEM). On the procedure:
as §1, §2, §3

Test [6] concerns HCT-15. Nature of the test: Cytotoxicity (ATPlite, 72 h) on HCT-15. It counts as cell-based, human. The following applies: HCT-15 (colon), read-out: IC50 values (μM ± SEM). As to the method:
as §1, §2
HCT-15 were plated (40,000 cells/ml) in a 96-well black plate. […] 24 h after plating the compounds were added in quadruplicate at the following concentrations: C8 (6 μM; 12 μM; 24 μM; 48 μM; 96 μM; 192 μM) and C21 (8 μM; 16 μM; 32 μM; 64 μM; 128 μM; 256 μM). […] The compound 21 has no inhibitory activity (IC50>100 μM), (Table 1).

The test system of test [7] is NCI-H1299. Nature of the test: Cytotoxicity (ATPlite, 72 h) on NCI-H1299. It counts as cell-based, human. The note with it: NCI-H1299 (lung), read-out: IC50 values (μM ± SEM). As to the method:
as §1, §2
24 h after plating the compounds were added in quadruplicate at the following concentrations: C8 (6 μM; 12 μM; 24 μM; 48 μM; 96 μM; 192 μM) and C21 (8 μM; 16 μM; 32 μM; 64 μM; 128 μM; 256 μM). […] The compound 21 has no inhibitory activity (IC50>100 μM), (Table 1).

Test [8] concerns MCF-7. Nature of the test: Cytotoxicity (ATPlite, 72 h) on MCF-7. The format is cell-based. The note with it: Homo sapiens, MCF7, MCF-7 (breast), read-out: IC50 values (μM ± SEM). As to the method: as §1, §2
MCF-7 were plated (40,000 cells/ml) in a 96-well black plate. […] 24 h after plating the compounds were added in quadruplicate at the following concentrations: C8 (6 μM; 12 μM; 24 μM; 48 μM; 96 μM; 192 μM) and C21 (8 μM; 16 μM; 32 μM; 64 μM; 128 μM; 256 μM).

Test [9] deals with COV318. Put plainly: Cytotoxicity (ATPlite, 72 h) on COV318. It counts as cell-based. The note with it: Homo sapiens, COV318 (ovary), read-out: IC50 values (μM ± SEM). On the procedure:
as §1, §2, §3

Test [10] has as its target T1, NEK6. Put plainly: Off-chip Mobility Shift Assay (MSA). The format is biochemical. The note with it: CDK7 peptide 1000 nM, 5 h. On the procedure:
The inhibitory activity on NEK6 of the compounds C8 and C21 was checked with the technique of Off-chip Mobility Shift Assay (MSA) (CARNA Biosciences Study ID: CBS170097, CARNA Biosciences, Kobe). […] PKR inhibitor was used as positive control. […] of solution 4× of the compounds, […] of 4× Substrate/ATP/Metal solution, and […] of 2× kinase solution were prepared with the reaction buffer (20 mM HEPES, 0.01% Triton X-100, 1 mM DTT, pH7.5), mixed and incubated in wells of polypropylene in 384-well plate for 5 hours at room temperature. Afterwards, […] of Termination Buffer (QuickScout Screening Assist MSA; Carna Biosciences) were added. One proceeded with analysing the reaction with LabChip system (Perkin Elmer), by separating and quantizing the peaks of product and substrate. The kinase reaction was then evaluated based upon the ratio (P/(P+S)) calculated based upon the heights of peak of peptides product (P) and substrate (S). The reading value of the control reaction (complete reaction mix) was placed as 0% of inhibition and the bottom value (Enzima (−)) was placed as 100% of inhibition, then the inhibition percentage of each sample was calculated. The value of IC50 was calculated by means of a logistic model at 4 parameters of the inhibition curves by adaptation to a four-parameter logistic curve.

The test system of test [11] is PEO-1. Nature of the test: cells. The following applies: Homo sapiens, PEO1, 72 h, read-out: IC50 (nM ± SEM).
Procedure: In order to prepare the cytotoxicity experiments the cells were trypsinized, counted with NEUBAUER chamber and plated in black plate having 96 wells per line (Perkinelmer). MDA-MB231, PEO-1, COV318, SW948, NCI-H1975 and NCI-H1299, were plated at 100,000 cells/ml, HCT-15 and MCF-7 at 40,000 cells/ml, In each well of the plate 200 μl of cell suspension were added. […] Parallelly, the single curves of each drug and of C8 were performed.
After 72 h from the addition of the compounds and/or drugs, the effect on the cell growth was evaluated by using the kit ATPlite (PerkinElmer) following the manufacturer's specifications. The luminescence signal was read at the instrument ENspire (PerkElmer). For each treated line, the % of inhibition of the growth with respect to the control and IC50 was calculated with software GraphPad Prism5 Software (San Diego, CA, USA). The combination index (CI) was calculated by using the program Compusyn (downloadable from www.combosyn.com), for the analysis of the combined effects of drugs based upon the equation of Chou-Talalay (Chou-Talalay, Adv Enzyme Regul 1984; 22:27-55). CI<1, =1, and >1 designates synergism, additive effect and antagonism, respectively.
PEO-1 were plated (100,000 cells/ml) in a 96-well black plate. In each well of the plate 200 μl of cell suspension were added.
In test [12] the test system is PEO-1. Nature of the test: Cytotoxicity (ATPlite, 72 h) on PEO-1. The format is cell-based. The following applies: Homo sapiens, PEO1, 72 h, PEO-1 (ovary), read-out: IC50 values (μM ± SEM). On the procedure:
as §1, §2
24 h after plating the compounds were added in quadruplicate at the following concentrations: C8 (6 μM; 12 μM; 24 μM; 48 μM; 96 μM; 192 μM) and C21 (8 μM; 16 μM; 32 μM; 64 μM; 128 μM; 256 μM). […]

Broadly, the IC50 is the midpoint of a concentration-inhibition curve.

Read-outs that look alike come from different tables or passages of the source. Some results are limits rather than exact numbers.

T1 sequence (Q9HC98 whole entry): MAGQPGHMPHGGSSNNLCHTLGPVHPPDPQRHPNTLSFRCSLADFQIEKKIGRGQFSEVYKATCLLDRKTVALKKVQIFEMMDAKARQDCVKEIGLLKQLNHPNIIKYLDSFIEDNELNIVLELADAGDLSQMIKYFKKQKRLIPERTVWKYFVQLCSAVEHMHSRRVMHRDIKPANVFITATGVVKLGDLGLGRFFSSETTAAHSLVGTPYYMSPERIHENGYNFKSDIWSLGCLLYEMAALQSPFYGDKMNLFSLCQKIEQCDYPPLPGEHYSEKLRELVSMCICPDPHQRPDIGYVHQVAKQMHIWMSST

In the case of `N.N.[Cl][Pt][Cl]` [Cisplatin], the IC50 in [1] is 7.9 ± 0.65 µM.
Turning to `CC1=C(C#N)C(O)=NC(=O)/C1=C\c1ccc(-c2ccccc2)o1` [C8, (5Z)-2-hydroxy-4-methyl-6-oxy-5-[(5-phenylfuran-2il)methylidene]-5,6-dihydropyridine-3-carbonitrile], the 50% inhibitory concentration (IC50) was less than 100 µM in [2] (Homo sapiens, MDA-MB-231, 72 h); 65 ± 15 µM in test [2]; 3.4 ± 1.2 µM in [3]; greater than 100 µM in test [4]; greater than 100 µM in test [5]; 98.5 ± 0.5 µM in test [6]. Besides, the IC50 in [6] (Homo sapiens, HCT-15, 72 h) was less than 100 µM; in [7] (Homo sapiens, NCI-H1299, 72 h) it was less than 100 µM; in test [7], 87.8 ± 10 µM; in [8], greater than 100 µM; in [9], greater than 100 µM; in test [10] it was 13.8 µM. For the same compound, the “NEK6 activity inhibition in screening” value in test [3] was “most active”.
Take `CC(=O)O[C@H]1C(=O)[C@@]2(C)[C@H]([C@H](OC(=O)c3ccccc3)[C@]3(O)C[C@H](OC(=O)[C@H](O)[C@@H](NC(=O)c4ccccc4)c4ccccc4)C(C)=C1C3(C)C)[C@]1(OC(C)=O)CO[C@@H]1C[C@@H]2O` [Paclitaxel]: in test [11], the IC50 is 7 ± 0.001 nM.
Consider `Nc1nc2c(c(=O)[nH]1)C(c1ccccc1)C1=C(N2)c2ccccc2C1=O` (stereo not drawn) [C21, 6-amino-2-phenyl-5,7,9-triazatetracycle[8.7.0.0^3,^8.0^11,^16]heptadeca 1(10),3(8),6,11,13,15 hexaene-4, 17-dione], for which the 50% inhibitory concentration (IC50) in test [2] (Homo sapiens, MDA-MB-231, 72 h) was less than 100 µM; in test [2] it was 75 ± 12 µM; in test [3] it was 2.6 ± 0.05 µM; in test [4], greater than 100 µM; in test [5] it was greater than 100 µM; in test [6] (Homo sapiens, HCT-15, 72 h), greater than 100 µM. The IC50 was greater than 100 µM in [7] (Homo sapiens, NCI-H1299, 72 h); greater than 100 µM in [8]; greater than 100 µM in test [9]; 49.8 µM in test [10]; greater than 100 µM in test [12]. Moreover, in test [3], the “NEK6 activity inhibition in screening” value was “most active”.
